Source: the supplement of paper PMC10307832

Tests used:
Test in all cases: relative viability (nuclei count vs DMSO), 5 days (fraction); higher = more cells survive
Motesanib + Lapatinib = compound: CC1(C)CNc2cc(NC(=O)c3cccnc3NCc3ccncc3)ccc21 [Motesanib] + CS(=O)(=O)CCNCc1ccc(-c2ccc3ncnc(Nc4ccc(OCc5cccc(F)c5)c(Cl)c4)c3c2)o1 [Lapatinib] (partner 2 µM)
Outline: (§1)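 Dosing by pin tool came one day after lung cancer cell lines were seeded in 1536-well plates, using either one drug or a fixed anchor-drug dose plus five library-drug doses (not always all listed) in √10 steps. After 5 days, nuclei were counted on 4× images. Relative viability is treated-well nuclei count divided by vehicle-well nuclei count, and values are medians of duplicate plates.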

Motesanib + Olaparib = compound: CC1(C)CNc2cc(NC(=O)c3cccnc3NCc3ccncc3)ccc21 [Motesanib] + O=C(c1cc(Cc2n[nH]c(=O)c3ccccc23)ccc1F)N1CCN(C(=O)C2CC2)CC1 [Olaparib] (partner 8 µM)
Outline: as §1

[1] = compound: C[C@@]1(C(=O)Nc2ccc(F)nc2)CCCN1c1nc(Nc2cc(C3CC3)n[nH]2)c2cccn2n1 + Cc1cc(Nc2cc(N3CCN(C)CC3)nc(Sc3ccc(NC(=O)C4CC4)cc3)n2)n[nH]1 [Tozasertib] (partner 0.1 µM)
Outline: as §1

[2] = compound: C[C@@]1(C(=O)Nc2ccc(F)nc2)CCCN1c1nc(Nc2cc(C3CC3)n[nH]2)c2cccn2n1 + Nc1ncn([C@H]2C[C@H](O)[C@@H](CO)O2)c(=O)n1 [Decitabine] (partner 2 µM)
Outline: as §1

Cell Line	relative viability (Motesanib + Lapatinib; first compound 0.01 µM)	relative viability (Motesanib + Lapatinib; first compound 0.03162 µM)	relative viability (Motesanib + Lapatinib; first compound 0.1 µM)	relative viability (Motesanib + Lapatinib; first compound 0.3162 µM)	relative viability (Motesanib + Lapatinib; first compound 1 µM)	relative viability (Motesanib + Olaparib; first compound 0.01 µM)	relative viability (Motesanib + Olaparib; first compound 0.03162 µM)	relative viability (Motesanib + Olaparib; first compound 0.1 µM)	relative viability (Motesanib + Olaparib; first compound 0.3162 µM)	relative viability (Motesanib + Olaparib; first compound 1 µM)	relative viability ([1]; first compound 0.04 µM)	relative viability ([1]; first compound 0.1265 µM)	relative viability ([1]; first compound 0.4 µM)	relative viability ([1]; first compound 1.265 µM)	relative viability ([2]; first compound 0.04 µM)	relative viability ([2]; first compound 0.1265 µM)	relative viability ([2]; first compound 0.4 µM)	relative viability ([2]; first compound 1.265 µM)
SK-MES-1	0.46	0.481	0.418	0.465	0.454	0.736	0.725	0.736	0.677	0.575	0.979	0.968	0.8	0.207	0.333	0.424	0.333	0.344
SW 1573	1.16	1.09	1	0.929	1.33	0.504	0.485	0.42	0.588	0.504	0.15	0.16	0.172	0.182	0.465	0.413	0.429	0.177
